In article PMC5967867, “An NMDAR positive and negative allosteric modulator series share a binding site and are interconverted by methyl groups” (eLife, 2018):

How the values were obtained:
NMDARs = assay: Whole-cell recordings of modulation at +40 mV and -60 mV (voltage dependence); type: cell-based, rat; conditions: 10 µM test compound
Procedure: Figure 4. The association and dissociation time course of EU1794-2, EU1794-4 and EU1794-27 differ at GluN1/GluN2A and GluN1/GluN2D. (A) Representative whole-cell current recordings of GluN1/GluN2D NMDARs exemplifying the modulation time course of EU1794-2, EU1794-4 and EU1794-27 (1, 3, 10 µM). […] Insets show the steady state modulation extent from the HEK cell experiments fit by the Hill equation (Hill slope fixed to 1). (B) Analysis of the time course for the onset of PAM and NAM action as a function of concentrations for EU1794-2 (left), EU1794-4 (left) and EU1794-27 (right) used to determine the association rate kON (black circles) and dissociation rate kOFF (grey squares), from which we can calculate Kd for each modulator. Data are from at least 3 cells for each concentration of modulator. For EU1794-27 the association and dissociation rate linear component was also found to be concentration dependent (mon = −0.98 pA/(ms*µM), moff = 0.62 pA/(ms*µM)). (C,D) Similar set of panels as A,B but examining EU1794-2, EU1794-4 and EU1794-27 modulation of GluN1/GluN2A. In example recordings, all modulator concentrations are 10 µM. Data are from at least 3 cells for each concentration of modulator. For EU1794-27 time-course was fitted with the sum of an exponential and linear function, and both the time constant and slope were concentration dependent (mon = −0.33 pA/(s*µM), moff = 0.16 pA/(s*µM)). Figure 4—figure supplement 1. The actions of EU1794 modulators are voltage-independent and are influenced by the desensitization level. (A–C) A representative current response of EU1794-2 (A, the ratio of the % modulation by EU1794-2 at +40 mV and −60 mV was 1.1 ± 0.27, n = 3), EU1794-4 (B, the ratio of modulation at +40 mV and −60 mV was 0.88 ± 0.06, n = 6) and EU1794-27 (C, the ratio of modulation at +40 mV and −60 mV was 0.99 ± 0.15, n = 3) modulation with the Vm held at +40 mV and −60 mV; all responses shown were using 10 µM of test compound. […]

[1] = Racemization time course of enantiomers in working solution (functional assessment); type: physicochemical; conditions: standard experimental (aqueous working) solution
Description: The enantiomers of EU1794-27 were separated to determine whether the racemic activity reflected the actions of only one enantiomer (see Supplemental methods). (-)-EU1794-27 potentiated NMDAR responses similarly to the racemic mixture (Figure 8—figure supplement 1A, Table 7). […] We previously reported ([Katzman et al., 2015]) that purified enantiomers were likely to racemize in aqueous solutions, which should proceed by a first-order reaction dependent on multiple factors such as ionic strength, pH, buffer, etc. ([Smith et al., 1978]). Thus, to quantitatively determine if racemization would impact our experiments using the enantiomers, we performed a functional assessment of this property in our standard experimental solution. […] Both enantiomers of EU1794-4 inhibited NMDAR responses, but with different potencies (Figure 8—figure supplement 1C, Supplementary File 2). […] All enantiomer studies, other than the racemization time-course, were performed rapidly to minimize any racemization, being completed in less than 80 min after making the aqueous solution of modulator.
Figure 8. The enantiomers of EU1794-4 and EU1794-27 have different action. […] (C) Single concentration competition experiments illustrating an interaction between both enantiomers of EU1794-4 (+and -) and the positive modulating enantiomer of EU1794-27 (-) at GluN1/GluN2D. […] Figure 8—figure supplement 1. […]

For CCOC(=O)c1c(NC(=O)CC2SC(=N)NC2=O)sc2c1CCC(C)C2 (stereo not drawn) [EU1794-2, ethyl 2-(2-(2-imino-4-oxothiazolidin-5-yl)acetamido)-6-methyl-4,5,6,7-tetrahydrobenzo[b]thiophene-3-carboxylate], the “ratio of the % modulation at +40 mV and −60 mV” value (from here on “ratio of the % modulation”) (NMDARs) was 1.1 ± 0.27.

For CCOC(=O)c1c(NC(=O)CC2SC(=N)NC2=O)sc2c1CCCC2 (stereo not drawn) [EU1794-4, ethyl 2-(2-(2-imino-4-oxothiazolidin-5-yl)acetamido)-4,5,6,7-tetrahydrobenzo[b]thiophene-3-carboxylate], the melting point was 163 °C (dec.), the half-life at 10 µM [1] was 3.27 h and the “ratio of the % modulation” value (NMDARs) was 0.88 ± 0.06.

In the case of CC(C)(C)OC(=O)c1c(NC(=O)CC2SC(=N)NC2=O)sc2c1CCCC2 (stereo not drawn) [EU1794-27, tert-butyl 2-(2-(2-imino-4-oxothiazolidin-5-yl)acetamido)-4,5,6,7-tetrahydrobenzo[b]thiophene-3-carboxylate], the half-life at 10 µM [1] is reported as 3.28 h and the “ratio of the % modulation” value (NMDARs) is reported as 0.99 ± 0.15.
